Assay results published in the Kinase Knowledgebase extract (Sharma et al. 2016).
pEC50, pKd: −log10 of the molar value. Where “and” joins values, the source holds several entries; their conditions need not be identical. Equal values may be shown once.

biological target: MAPK14 (human) (UniProt Q16539); assay: Cell-Based Assay; settings: thp1
Sequence (Q16539 whole entry, looked up): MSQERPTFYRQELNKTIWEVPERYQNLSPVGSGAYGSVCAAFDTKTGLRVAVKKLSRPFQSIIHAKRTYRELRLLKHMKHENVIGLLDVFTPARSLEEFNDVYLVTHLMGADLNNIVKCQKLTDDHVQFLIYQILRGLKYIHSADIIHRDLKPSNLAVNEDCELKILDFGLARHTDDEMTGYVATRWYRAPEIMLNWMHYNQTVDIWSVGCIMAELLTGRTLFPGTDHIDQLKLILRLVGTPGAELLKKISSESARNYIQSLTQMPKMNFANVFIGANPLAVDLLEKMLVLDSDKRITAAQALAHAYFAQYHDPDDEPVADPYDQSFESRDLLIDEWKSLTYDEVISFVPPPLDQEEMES

Q: How did the pEC50 turn out when `CC(C)(C)c1cc(NC(=O)Nc2ccc3ccccc3c2)n(-c2ccccc2)n1` was run?
A: 6.15

Q: How did the pKd turn out when `CC(C)(C)c1cc(NC(=O)Nc2cccnc2)n(-c2ccccc2)n1` was run?
A: 6.38

Q: How did the pKd turn out when `CC(C)(c1ccccc1)c1cc(NC(=O)Nc2ccccc2)n(-c2ccccc2)n1` was run?
A: 6.12

Q: What does the source list for `CC(C)(C)c1cc(NC(=O)NCCc2ccccc2)n(-c2ccccc2)n1`?
A: pEC50: 4.96; pKd: 6.59

Q: Which results are given for `Cc1ccc(-n2nc(C(C)(C)C)cc2NC(=O)Nc2ccccc2F)cc1`?
A: Cp: 51 µg/mL; pEC50: 6.89; pKd: 7.85

Q: What does the source list for `CC(C)(C)c1cc(NC(=O)Nc2cccc(N)c2)n(-c2ccccc2)n1`?
A: pEC50: 6.00; pKd: 7.00

Q: `CC1(c2cc(NC(=O)Nc3ccccc3)n(-c3ccccc3)n2)CCOCC1` was tested. Which pKd did it give?
A: 6.55

Q: How did the pKd turn out when `CC(C)(C)c1cc(NC(=O)Nc2ccncc2)n(-c2ccccc2)n1` was run?
A: 5.92

Q: What does the source list for `Cc1ccc(-n2nc(C(C)(C)C)cc2NC(=O)Nc2ccccc2)cc1`?
A: Cp: 11 µg/mL; pEC50: 6.74; pKd: 8.52 and 7.68

Q: With `CC(C)(C)c1cc(NC(=O)Nc2ccc(N)cc2)n(-c2ccccc2)n1` as the molecule, how does the pKd read?
A: 6.50

Q: `COCC(C)(C)c1cc(NC(=O)Nc2ccccc2)n(-c2ccccc2)n1` was tested. Which pKd did it give?
A: 5.85

Q: `CCC(C)(C)c1cc(NC(=O)Nc2ccccc2)n(-c2ccccc2)n1` was tested. Which pKd did it give?
A: 7.92

Q: Which results are given for `CC(C)(C)c1cc(NC(=O)Nc2ccccc2)n(-c2ccc3ccccc3c2)n1`?
A: pEC50: 5.72; pKd: 8.10

Q: Which results are given for `CC(C)(C)c1cc(NC(=O)NCc2ccccc2)n(-c2ccccc2)n1`?
A: pEC50: 5.92; pKd: 7.33

Q: What does the source list for `Cc1ccccc1-n1nc(C(C)(C)C)cc1NC(=O)Nc1ccccc1`?
A: pEC50: 5.64; pKd: 6.70

Q: With `CC(C)(C)c1cc(NC(=O)Nc2ccccn2)n(-c2ccccc2)n1` as the molecule, how does the pKd read?
A: 6.40

Q: How did the pEC50 turn out when `COc1cccc(-n2nc(C(C)(C)C)cc2NC(=O)Nc2ccccc2)c1` was run?
A: 6.02

Q: And the pKd?
A: 7.72

Q: How did the pKd turn out when `Cc1cc(NC(=O)Nc2ccccc2)n(-c2ccccc2)n1` was run?
A: < 5.15

Q: How did the pKd turn out when `CC(C)(C)c1cc(NC(=S)Nc2ccc(Cl)cc2)n(-c2ccccc2)n1` was run?
A: 6.28

Q: With `COc1ccc(-n2nc(C(C)(C)C)cc2NC(=O)Nc2ccccc2)cc1` as the molecule, how does the pEC50 read?
A: 5.80

Q: And the pKd?
A: 7.51

Q: With `CN(C(=O)Nc1cc(C(C)(C)C)nn1-c1ccccc1)c1ccc(Cl)cc1` as the molecule, how does the pKd read?
A: 5.12

Q: With `Cc1cccc(-n2nc(C(C)(C)C)cc2NC(=O)Nc2ccccc2)c1` as the molecule, how does the pEC50 read?
A: 6.42

Q: What about the pKd of the same molecule?
A: 8.70

Q: Which results are given for `CC(C)(C)c1cc(NC(=O)Nc2cccc3ccccc23)n(-c2ccccc2)n1`?
A: pEC50: 6.60; pKd: 8.30

Q: With `CC(C)(C)c1cc(NC(=O)Nc2ccccc2)n(-c2ccc(N)cc2)n1` as the molecule, how does the pEC50 read?
A: 6.20

Q: And the pKd?
A: 8.15

Q: Which results are given for `Cc1cccc(NC(=O)Nc2cc(C(C)(C)C)nn2-c2ccccc2)c1C`?
A: pEC50: 6.39; pKd: 8.52

Q: With `CC(C)(C)c1cc(NC(N)=O)n(-c2ccccc2)n1` as the molecule, how does the pKd read?
A: < 5.15

Q: How did the pKd turn out when `CN(C(=O)Nc1ccc(Cl)cc1)c1cc(C(C)(C)C)nn1-c1ccccc1` was run?
A: < 6.00

Q: How did the pEC50 turn out when `CC(C)(C)c1cc(NC(=O)NC2CCCCC2)n(-c2ccccc2)n1` was run?
A: 5.48

Q: What about the pKd of the same molecule?
A: 6.89

Q: `CC(C)(C)c1cc(NC(=O)NC2Cc3ccccc3C2)n(-c2ccccc2)n1` was tested. Which pEC50 did it give?
A: 6.11

Q: What about the pKd of the same molecule?
A: 7.85

Q: How did the pKd turn out when `O=C(Nc1ccccc1)Nc1cc(C2CCCCC2)nn1-c1ccccc1` was run?
A: < 6.40

Q: `CC(C)(C)c1cc(NC(=O)Nc2ccccc2)n(C2CCCCC2)n1` was tested. Which pKd did it give?
A: 6.30

Q: Which results are given for `CC(C)(C)c1cc(NC(=O)NC2CCc3ccccc32)n(-c2ccccc2)n1` (stereo not given)?
A: pEC50: 6.48; pKd: 8.52

Q: How did the pEC50 turn out when `CC(C)(C)c1cc(NC(=O)Nc2ccccc2)n(-c2ccncc2)n1` was run?
A: 6.09

Q: And the pKd?
A: 7.68

Q: `CC1(c2cc(NC(=O)Nc3ccccc3)n(-c3ccccc3)n2)CCCCC1` was tested. Which pKd did it give?
A: 7.66

Q: `CC(C)(C)c1cc(CC(=O)Nc2ccc(Cl)cc2)n(-c2ccccc2)n1` was tested. Which pKd did it give?
A: 5.82

Q: With `Cc1ccc(-n2nc(C(C)(C)C)cc2NC(=O)Nc2cccc3ccccc23)cc1` as the molecule, how does the pEC50 read?
A: 6.43

Q: `Cc1ccc(-n2nc(C(C)(C)C)cc2NC(=O)Nc2ccccc2)cc1C` was tested. Which pEC50 did it give?
A: 6.92

Q: And the pKd?
A: 8.40

Q: What does the source list for `CC(C)(C)c1cc(NC(=O)Nc2ccccc2)n(-c2ccccc2)n1`?
A: Cp: 0.1 µg/mL; pEC50: 6.14; pKd: 7.89

Q: `CC(C)c1cc(NC(=O)Nc2ccccc2)n(-c2ccccc2)n1` was tested. Which pKd did it give?
A: 6.48

Q: With `CC(C)(C)c1cc(NC(=O)Cc2ccc(Cl)cc2)n(-c2ccccc2)n1` as the molecule, how does the pKd read?
A: < 6.05

Q: Which results are given for `CC(C)(C)c1cc(NC(=O)Nc2ccc(Cl)cc2)n(-c2ccccc2)n1`?
A: pEC50: 6.00; pKd: 8.10

same assay, conditions: thp1, concentration not given here

Q: How did the inhibition turn out when `Cc1ccc(-n2nc(C(C)(C)C)cc2NC(=O)Nc2ccccc2F)cc1` was run?
A: 53%
